PubChem BioAssay (NCI)
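Step 1: Grow cells in 96-well plates. Step 2: Expose to compound for 48 hours at 5 concentrations. Step 3: Interpolate endpoints linearly; if unreached, use highest concentration. GI50 = concentration required for 50% inhibition of growth. TGI marks complete inhibition of growth.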

Legend:
Assay in all cases: NCI-60 cell line screen, 48 h
[1] = tested on: RXF 393 renal
[2] = tested on: A549 NSCLC
[3] = tested on: SNB-19 CNS
[4] = tested on: COLO 205 colon
[5] = tested on: NCI-H460 lung
[6] = tested on: OVCAR-3 ovarian
[7] = tested on: SK-MEL-2 melanoma
[8] = tested on: SF-295 CNS
[9] = tested on: HOP-62 NSCLC
[10] = tested on: OVCAR-4 ovarian

Structure (SMILES)	GI50 [1]	TGI [1]	GI50 [2]	TGI [2]	GI50 [3]	TGI [3]	GI50 [4]	TGI [4]	GI50 [5]	TGI [5]	GI50 [6]	TGI [6]	GI50 [7]	TGI [7]	GI50 [8]	TGI [8]	GI50 [9]	TGI [9]	GI50 [10]	TGI [10]
COC1=CC(c2ccc[nH]2)=N/C1=C\c1[nH]c(C)c(CC(=O)OCc2ccccc2)c1C	430 nM	2070 nM	361 nM	6050 nM	671 nM	12400 nM	240 nM	1270 nM	327 nM	1720 nM	310 nM	1410 nM	198 nM	510 nM	252 nM	1100 nM	374 nM	2270 nM	256 nM	5170 nM
N/N=C(\c1nc2ccc(Cl)cc2[nH]c1=O)C(O)c1ccc(Cl)c(Cl)c1 (stereo not given)	–	> 100000 nM	–	> 100000 nM	–	> 100000 nM	–	> 100000 nM	–	> 100000 nM	–	> 100000 nM	–	> 100000 nM	–	> 100000 nM	–	> 100000 nM	–	87800 nM
CC(C)=CC(=O)N[C@H]1CC[C@]2(C)C3CC[C@]4(C)C(C(C)N(C)C)=CCC4C3CCC2[C@H]1O (stereo not given in full)	2700 nM	9740 nM	5920 nM	22900 nM	14800 nM	28100 nM	1690 nM	3300 nM	1870 nM	3750 nM	4120 nM	15700 nM	12400 nM	28700 nM	2640 nM	9070 nM	2610 nM	7490 nM	5880 nM	20800 nM
N#C/C(=N\Nc1ccccc1)C(=O)Nc1cc(-c2ccccc2)nn1-c1ccccc1	2260 nM	7690 nM	2950 nM	> 100000 nM	3600 nM	> 100000 nM	2170 nM	4770 nM	2720 nM	22100 nM	3240 nM	33200 nM	2190 nM	9940 nM	3140 nM	> 100000 nM	2840 nM	49900 nM	2010 nM	8950 nM
CCCCCCCC(=O)SCC/C=C/[C@@H]1CC(=O)NCc2nc(cs2)C2=N[C@@](C)(CS2)C(=O)N[C@@H](C(C)C)C(=O)N1	< 11.2 nM	69.5 nM	27.3 nM	1530 nM	41.9 nM	> 41100 nM	11.4 nM	30.2 nM	33.5 nM	> 100000 nM	15 nM	806 nM	30.4 nM	597 nM	39.2 nM	402 nM	32.1 nM	13100 nM	21.2 nM	> 100000 nM
COC1CCC(OC)C(C2(C3CC(OC)CCC3OC)OC(=O)c3ccccc32)C1 (stereo not given)	–	> 100000 nM	–	> 100000 nM	–	> 100000 nM	–	> 100000 nM	–	> 100000 nM	–	> 100000 nM	–	> 100000 nM	–	> 100000 nM	–	> 100000 nM	–	> 100000 nM
